The record followed here is paper PMC9032381 (Diagnostics, 2022).

Values joined by “and” are separate entries in the source; they are usually repeats but may differ in a detail not shown here. Equal values may be shown once. Read-outs that look alike come from different tables or passages of the source.

[1] abbreviates: measured, listed as 18F-Afatinib.

On to `C=CC(=O)Nc1cc(Nc2nccc(-c3c[nH]c4ccccc34)n2)c(OC)cc1N(C)CCN(C)C` [AZ5104], for which, for the setting “cited”, the Active metabolite exposure was 10 % AUC and the “Active metabolite potency relative to osimertinib (OSI)” value is listed as “higher”.
On to `C=CC(=O)Nc1cc(Nc2nccc(-c3cn([11CH3])c4ccccc34)n2)c(OC)cc1N(C)CCN(C)C` [^11C-osimertinib], for which, where the note is “measured”, the “parent fraction, initial decline (drop to)” value stood at 50% and the “parent fraction, plateau” value is on record as 28–29%.
With `C=CC(=O)Nc1cc(Nc2nccc(-c3cn(C)c4ccccc34)n2)c(OC)cc1N(C)CCN(C)C` [Osimertinib, reference compound], where the note is “cited”, the AUC dose normalized was 75 µM·h; the “Cmin at Css” value stood at 417 nM; the “Metabolism Liver” value is around 99%; the “Renal extraction, unchanged” value is reported as 2%. Besides, under “cited”, the Strength of basicity entry is “Strong”, the “Target Ctrough” value was found to be 332 nM and the “Time to Css” value worked out at 15 days.
In the case of `CN(C)C/C=C/C(=O)Nc1cc2c(Nc3ccc([18F])c(Cl)c3)ncnc2cc1OC1CCOC1` (stereo not drawn) [^18F-afatinib], where the note is “measured”, the “SUV Aorta (blood SUV)” value was 0.5 (±0.1), the “SUV Brain” value was 0.04 (0.01), the “SUV Kidney” value is 3.5 (0.7) and the “SUV Liver” value is recorded as 11.8 (2.2). Besides, where the note is “measured”, the “SUV Lung” value was 1.3 (0.5); the “SUV Spleen” value is on record as 6.8 (1.0); the “SUV Vertebra” value is 2.4 (0.8); the “SUV-AUC Liver” value was 731.5 (87.4) MBq/mL and seconds. In addition, where the note is “measured”, the “SUV-AUC Lung” value was 98.5 (16.5) MBq/mL and seconds; the “TBR Brain” value was 0.08 (0.03); the “TBR Kidney” value was 6.9 (1.8); the “TBR Liver” value was 23.3 (6.2). Further, for the setting “measured”, the “TBR Lung” value is 2.5 (1.2); the “TBR Spleen” value is listed as 13.2 (2.3); the “TBR Vertebra” value is recorded as 4.8 (2.0); the “TBR-AUC Liver” value is 747.7 (426.3) TBR and seconds. Besides, for the setting “measured”, the “TBR-AUC Lung” value is 90.9 (37.9) TBR and seconds; the parent fraction was 70% and 35%. For the same compound, under setting [1], the “SUV Aorta (blood SUV)” value is recorded as 0.5 (0.1); the “SUV Tumor” value is 1.8 (1.3) and 1.6 (0.1); the “TBR Tumor” value is 3.6 (2.4) and 3.3 (1.0); the “TBR-AUC Tumor” value was 150.7 (9.1) TBR and seconds and 113.0 (44.8) TBR.
For `C#Cc1cccc(Nc2ncnc3cc(OCCOC)c(OCCOC)cc23)c1` [Erlotinib, reference compound], under “cited”, the AUC dose normalized came to 207 µM·h, the “Cmin at Css” value worked out at 2567 nM, the Ka came out at 0.949 h⁻¹ and the “Metabolism Liver” value is given as around 98%. Also, where the note is “cited”, the “Renal extraction, unchanged” value is given as below 2%; the Strength of basicity result was “Weak”; the “Target Ctrough” value amounted to 1271 nM; the “Time to Css” value lay within 7 to 8 days.
Consider `CN(C)C/C=C/C(=O)Nc1cc2c(Nc3ccc(F)c(Cl)c3)ncnc2cc1O[C@H]1CCOC1` [Afatinib, reference compound], for which, for the setting “cited”, the AUC dose normalized stood at 23 µM·h, the Active metabolites result is given as “None”, the Ka worked out at 0.252 h⁻¹ and the Strength of basicity result is recorded as “Strong”. For the setting “cited”, the “Target Ctrough” value is reported as 50 nM and the “Time to Css” value is given as 8 days.
With `C=CC(=O)Nc1cc(Nc2nccc(-c3cn(C)c4ccccc34)n2)c(OC)cc1N(C)CCNC` [AZ7550], for the setting “cited”, the Active metabolite exposure is 10 % AUC and the “Active metabolite potency relative to osimertinib (OSI)” value was “as OSI”.
In the case of `C#Cc1cccc(Nc2ncnc3cc(OCCO)c(OCCOC)cc23)c1` [OSI413], the Active metabolite exposure (cited) is recorded as 10 % AUC.
Consider `C#Cc1cccc(Nc2ncnc3cc(OCCOC)c(OCCO)cc23)c1` [OSI-420], for which the Active metabolite exposure (cited) is recorded as 10 % AUC.
